“Also recorded” adds a separate entry of the source. Marks after values point to notes of the source that are not given here.
Experiments:
[1] = tested on: ovariectomized female rats; experiment: Prevention of bone loss, body fat, serum cholesterol and ALP, 3-month treatment of OVX rats (Example 5A, experiment 1); assay type: in vivo, Sprague-Dawley rats; details: OVX rats, 3 months
Method: (§1) Ten to twelve week-old female Sprague-Dawley rats (Crl:CD(SD)Br) (Charles River Laboratory, St-Constant, Canada) weighing approximately 220-270 g at start of treatment were used. The animals were acclimatized to the environmental conditions (temperature: 22±3° C.; humidity: 50±20%; 12-h light-12-h dark cycles, lights on at 07:15 h) for at least 1 week before starting the experiments. The animals were housed individually and were allowed free access to tap water and a pelleted certified rodent feed (Lab Diet 5002, Ralston Purina, St-Louis, Mo.). Experiments were conducted in an animal facility approved by the Canadian Council on Animal Care (CCAC) and the Association for Assessment and Accreditation of Laboratory Animal Care (AAALAC) in accordance with the CCAC Guide for Care and Use of Experimental Animals.
On day 1 of the study, the animals of the appropriate groups were bilaterally ovariectomized (OVX) under isoflurane anesthesia. […] Treatments were initiated on day 2 of the study and were performed once daily during 3 months.
(§2) After 3 months (experiment 1) or 26 weeks (experiment 2) of treatment, individual rats under Isoflurane anesthesia had their whole body skeleton and lumbar spine scanned using dual energy x-ray absorptiometry (DEXA; QDR 4500A, Hologic, Waltham, Mass.) and a Regional High Resolution Scan software. The bone mineral density (BMD) of the lumbar spine (vertebrae L2 to L4) and the total body composition (fat percentage) were determined.
(§3) After 3 months (experiment 1) or 26 weeks (experiment 2) of treatment, blood samples were collected at the jugular vein from overnight fasted animals (under Isoflurane anesthesia). Samples were processed for serum preparation and frozen at −80° C. until assay. Serum cholesterol levels and alkaline phospatase activity (ALP) were determined using the Boehringer Mannheim Diagnostic Hitachi 911 Analyzer (Boehringer Mannheim Diagnostic Laboratory Systems).

[2] = tested on: bone metabolism in the rat; details: cited from earlier work
[3] = tested on: OVX rats having established osteopenia; experiment: Treatment of OVX rats having established osteopenia, 26 weeks (Example 5B): BMD, total body fat; assay type: in vivo, Sprague-Dawley rats; details: treatment started 10 weeks after OVX, 26 weeks daily
Method: as §1, with “Height” for “Ten”, “nine month-old” for “twelve week-old”, “Canada)” for “Canada) weighing approximately 220-270 g at start of treatment”, “used in this experiment.” for “used.”, “prior to” for “before starting”, “ovariectomy. Animals were bilaterally ovariectomized (OVX) under isoflurane anesthesia. Twenty animals were kept intact as control.” for “experiments.”
Treatments were initiated 10 weeks after the ovariectomy and were performed once daily during 26 weeks. Animals not receiving a test article were treated with the appropriate vehicle alone during the same period.
Prior to the OVX, prior to the first day treatment (10 weeks after OVX) and after 26 weeks of treatment, individual rats under Isoflurane anesthesia had their whole body skeleton, lumbar spine and right femur scanned using dual energy x-ray absorptiometry (DEXA; QDR 4500A, Hologic, Waltham, Mass.) and a Regional High Resolution Scan software. The bone mineral density (BMD) of the lumbar spine (vertebrae L2 to L4), femur and the total body composition (fat percentage) were determined.

[4] = tested on: ZR-75-1 breast tumor xenografts; experiment: Growth of human ZR-75-1 breast tumor xenografts in OVX nude mice supplemented with estrone (DHEA, EM-800; Example 1); details: OVX + E1; for Inhibition of E1-stimulated ZR-75-1 tumor size / Inhibition of terminal tumor weight / Average tumor weight: 9.5 months
[5] = tested on: bone metabolism in the rat; experiment: Biochemical parameters of bone metabolism (urine, serum) after DHEA and/or EM-800; assay type: in vivo; details: DHEA 10 mg, EM-800 75 μg
Description: Data are expressed as the means±SEM.**: P<0.01 experimental versus respective control.
It is particularly important to indicate that the combination of DHEA and EM-800 exerted unexpected beneficial effects on important biochemical parameters of bone metabolism. […] Moreover, no effect of DHEA could be detected on daily urinary calcium or phosphorus excretion (Luo et al., Endocrinology 138: 4435-4444, 1997). EM-800, decreased the urinary hydroxyproline/creatinine ratio by 48% while, similarly to DHEA, no effect of EM-800 was seen on urinary calcium or phosphorus excretion. EM-800, moreover, had no effect on serum alkaline phosphatase activity, a marker of bone formation while DHEA increased the value of the parameter by about 75% (Luo et al., Endocrinology 138: 4435-4444, 1997).

[6] = tested on: uterus and vagina of ovariectomized nude mice; experiment: Uterine, vaginal and body weight in the xenograft-bearing OVX nude mice (Example 1)
MCF-7 cells = experiment: Proliferation of human breast cancer MCF-7 cells (DNA content); assay type: cell-based; details: MCF-7, Experiment 1
Method: The MCF-7 human breast adenocarcinoma cell line was derived from the pleural effusion of a patient. MCF-7 cells were used between passages 148 and 165 and subcultured weekly
Cells in their late logarithmic growth phase were harvested with 0.1% pancreatin (Sigma) and resuspended in the appropriate medium containing 50 ng bovine insulin/ml and 5% (v/v) FBS treated twice with dextran-coated charcoal to remove endogenous steroids. Cells were plated in 24-well Falcon plastic culture plates (2 cm^2/well) at the indicated density and allowed to adhere to the surface of the plates for 72 h. Thereafter, medium was replaced with fresh medium containing the indicated concentrations of compounds diluted from 1000×stock solutions in 99% redistilled ethanol in the presence or absence of E2. Control cells received only the ethanolic vehicle (0.1% EtOH,v/v). Cells were incubated for the specified time intervals with medium changes at 2-or 3-day intervals. Cell number was determined by measurement of DNA content.
Dose-response curves as well IC50 values were calculated using a weighted iterative nonlinear least-squares regression. All results are expressed as means±SEM.

[7] = tested on: ovariectomized female rats; experiment: Prevention of bone loss, body fat, serum cholesterol and ALP, 26-week treatment of OVX rats (Example 5A, experiment 2); assay type: in vivo, Sprague-Dawley rats; details: 26 weeks
Method: as §1
On day 1 of the study, the animals of the appropriate groups were bilaterally OVX under isoflurane anesthesia. Tested compounds were administered as suspension in 0.4% methylcellulose by oral gavage. Treatments were initiated on day 2 of the study and were performed once daily during 26 weeks. In both experiments, animals not receiving a test article were treated with the appropriate vehicle alone during the same period.
as §2, §3

[8] = tested on: uterus and vagina of ovariectomized mice; experiment: Uterine and vaginal weight in ovariectomized mice treated or not with estrone (9 days oral); assay type: in vivo, BALB/c mice; details: for Inhibition of estrone-stimulated uterine weight / Inhibition of estrone-stimulated vaginal weight: 9 days, OVX mice + E1
Method: (St-Constant, Quebec, Canada) and housed 5 per cage in a temperature (23±1° C.)—and light (12 h light/day, lights on at 7:15)—controlled environment. The mice were fed rodent chow and tap water ad libitum. […] Ten mice were kept intact as controls. […] Compounds were dissolved in ethanol (4% final concentration) and administered in 0.4% methylcellulose. Mice in the intact and OVX control groups received the vehicle alone (4% ETOH-0.4% methylcellulose) during the 9-day period. The animals were killed by exsanguination at the abdominal aorta on the 11th morning following ovariectomy.

[9] = E2 1 mg/kg, EM-652.HCl 2.5 mg/kg, DHEA 80 mg/kg
[10] = DHEA 0.3 mg (alone or with EM-800 15 μg)
[11] = DHEA 1.0 mg (alone or with EM-800 15 μg)
[12] = DHEA 3.0 mg (alone or with EM-800 15 μg)
[13] = OVX rats, Premarin 0.25 mg/kg, SERMs 2.5 mg/kg oral
[14] = OVX + ERA-923 3 μg (no estrone)
[15] = OVX + ERA-923 30 μg (no estrone)
[16] = alone, absence of estrone, both doses used

In the case of `C[C@]12CC[C@H](O)CC1=CC[C@@H]1[C@@H]2CC[C@]2(C)C(=O)CC[C@@H]12` [DHEA, dehydroepiandrosterone, reference compound], the “Serum ALP” value [1] is reported as 224±18 IU/L, the Serum cholesterol [1] is reported as 1.59 ± 0.10 mmol/L and the Total fat [1] is reported as 17.3 ± 1.5 %. The “Lumbar spine BMD” value [1, 9] was 0.2321 ± 0.0034 g/cm^2, the “Lumbar spine, Prevention of Bone Loss” value [1, 9] was 43% and the “Decrease of urinary hydroxyproline/creatinine ratio” value [2] was “did not affect; also recorded: did not show any effect”. For the same compound, the “Effect on daily urinary calcium or phosphorus excretion” value [2] was “no effect”, the “Increase of serum alkaline phosphatase activity” value [2] was “about 75%” and the “Femoral BMD” value [3] was “completely prevented the further decrease”. The “Lumbar spine BMD” value [3] was “completely prevented the further decrease”, the Total body fat [3] was “prevented the 17% increase” and the “Inhibition of E1-stimulated ZR-75-1 tumor size” value ([4]; DHEA 0.3 mg percutaneous) was 50.4%. For the same compound, the “Inhibition of terminal tumor weight” value ([4]; DHEA 0.3 mg) was 67%, the “Inhibition of E1-stimulated ZR-75-1 tumor size” value ([4]; DHEA 1.0 mg percutaneous) was 76.8% and the “Inhibition of terminal tumor weight” value ([4]; DHEA 1.0 mg) was 82%. For the same compound, the “Inhibition of E1-stimulated ZR-75-1 tumor size” value ([4]; DHEA 3.0 mg percutaneous) was 80.0%, the “Inhibition of terminal tumor weight” value ([4]; DHEA 3.0 mg) was 85% and the “Category of response: Partial” value [4, 10] was 0 (0) Number and (%). The Average tumor weight [4, 10] was 0.37 ± 0.12 g, the “Category of response: Partial” value [4, 11] was 0 (0) Number and (%) and the Average tumor weight [4, 11] was 0.20 ± 0.06 g. The “Category of response: Partial” value [4, 12] was 0 (0) Number and (%), the Average tumor weight [4, 12] was 0.17 ± 0.06 g and the “Serum tALP” value [5] was 198.38 ± 30.76* IU/L. For the same compound, the “Urine HP/Cr” value [5] was 14.02 ± 1.59 μmol/mmol, the Urine calcium [5] was 25.87 ± 3.54 μmol/24h/100g and the Urine phosphorus [5] was 151.41 ± 14.57 μmol/24h/100g. For the same compound, the “Effect on body weight adjusted for tumor weight” value ([6]; 9.5 months) was “No significant effect”, the “Effect on estrone-stimulated vaginal weight” value ([6]; addition of DHEA to estrone) was “had no significant effect” and the “Inhibition of the stimulatory effect of estrone on uterine weight” value ([6]; highest dose of DHEA used) was 26%.

For `Cc1c(-c2ccc(O)cc2)n(Cc2ccc(OCCN3CCCCC3)cc2)c2ccc(O)cc12` [ERA-923], the IC50 (MCF-7 cells; Homo sapiens, MCF7, read-out: Inhibition of 1nM E2 stimulation of DNA by tested compounds IC50) was 3.68 nM, the “Maximal stimulation of DNA by tested compounds” value (MCF-7 cells) was “N.S” and the “Reversal of the fat increase induced by estrogen deficiency” value ([7]; OVX rats) was 75%. The “Serum ALP” value ([7]; OVX rats) was 85 ± 6 IU, the Serum cholesterol ([7]; OVX rats) was 1.15 ± 0.05 mmol/L and the Total fat ([7]; OVX rats) was 28.0 ± 1.8 %. For the same compound, the “Lumbar spine BMD” value [7, 13] was 0.2252 ± 0.0058 g/cm^2, the “Lumbar spine, Prevention of Bone Loss” value [7, 13] was 49% and the “OVX-induced increase on serum cholesterol levels” value ([7]; alone or in combination with Premarin) was “completely prevented”. The “Inhibition of estrone-stimulated uterine weight” value ([8]; 1 μg daily oral) was 12%, the “Inhibition of estrone-stimulated uterine weight” value ([8]; 3 μg daily oral) was 47% and the “Inhibition of estrone-stimulated vaginal weight” value ([8]; 3 μg daily oral) was 16%. For the same compound, the “Inhibition of estrone-stimulated uterine weight” value ([8]; 10 μg daily oral) was 74%, the “Inhibition of estrone-stimulated vaginal weight” value ([8]; 10 μg daily oral) was 56% and the “Inhibition of estrone-stimulated uterine weight” value ([8]; 30 μg daily oral) was 94%. The “Inhibition of estrone-stimulated vaginal weight” value ([8]; 30 μg daily oral) was 93%, the Uterine weight ([8]; OVX + E1 + ERA-923 1 μg) was 105.5 ± 6.1 mg and the Vaginal weight ([8]; OVX + E1 + ERA-923 1 μg) was 54.2 ± 3.0 mg. It also gave a Uterine weight ([8]; OVX + E1 + ERA-923 3 μg) of 69.7 ± 4.4 mg, a Vaginal weight ([8]; OVX + E1 + ERA-923 3 μg) of 47.2 ± 1.6 mg and a Uterine weight ([8]; OVX + E1 + ERA-923 10 μg) of 42.1 ± 2.7 mg. The Vaginal weight ([8]; OVX + E1 + ERA-923 10 μg) was 31.1 ± 2.3 mg, the Uterine weight ([8]; OVX + E1 + ERA-923 30 μg) was 21.7 ± 1.7 mg and the Vaginal weight ([8]; OVX + E1 + ERA-923 30 μg) was 16.7 ± 1.8 mg. It also gave a Uterine weight [8, 14] of 18.3 ± 1.2 mg, a Vaginal weight [8, 14] of 14.1 ± 1.2 mg and a Uterine weight [8, 15] of 17.7 ± 1.6 mg. The Vaginal weight [8, 15] was 15.3 ± 2.0 mg, the “Stimulatory effect on uterine weight” value [8, 16] was “no significant stimulatory effect” and the “Stimulatory effect on vaginal weight” value [8, 16] was “no significant stimulatory effect”.

Source: patent publication US20030040510A1, “Selective estrogen receptor modulators in combination with estrogens” (Endorecherche, Inc., priority 2000, published 2003)
